Experimental findings from US10787452B2 (Vertex Pharmaceuticals Incorporated, priority 2012, dated 2020) are described below.

The experiment deals with HCT116 colorectal cancer cells. The experiment is described as follows: Cisplatin sensitization assay (96 h cell viability MTS).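 Further: compound concentration needed to lower the Cisplatin-alone IC50 by a set fold.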 As to conditions: 96 h MTS, compound plus Cisplatin. In kind it is cell-based. Summed up:
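Cisplatin and compound are dosed at the same time, both serially diluted 2-fold from 10 μM final across a full matrix. Plates sit at 37° C in 5% CO2 for 96 h before MTS addition.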
For the compound `CN1CCN(C(=O)C2CCN(c3c(F)cncc3NC(=O)c3c(N)nn4cc(F)cnc34)CC2)C2CC21` (centres unmarked) [I-G-65, 2-amino-6-fluoro-N-(5-fluoro-4-(4-(5-methyl-2,5-diazabicyclo[4.1.0]heptane-2-carbonyl)piperidin-1-yl)pyridin-3-yl)pyrazolo[1,5-a]pyrimidine-3-carboxamide], the “Cisplatin Sensitization Assay” value was “+++ (Compounds with a Cisplatin sensitization value of <0.02 μM are marked with “+++.”)”. In the case of `Nc1nn2cc(F)cnc2c1C(=O)Nc1cncc(Cl)c1N1CCC(C(=O)N2CCN3CCC2CC3)CC1` [I-G-66, N-(4-(4-(1,4-diazabicyclo[3.2.2]nonane-4-carbonyl)piperidin-1-yl)-5-chloropyridin-3-yl)-2-amino-6-fluoropyrazolo[1,5-a]pyrimidine-3-carboxamide], the “Cisplatin Sensitization Assay” value was “+++ (Compounds with a Cisplatin sensitization value of <0.02 μM are marked with “+++.”)”.

On to `Nc1nn2cc(F)cnc2c1C(=O)Nc1cncc(F)c1N1CCC(C(=O)N2CCC(N3CCC3)CC2)CC1` [I-G-68, 2-amino-N-(4-(4-(4-(azetidin-1-yl)piperidine-1-carbonyl)piperidin-1-yl)-5-fluoropyridin-3-yl)-6-fluoropyrazolo[1,5-a]pyrimidine-3-carboxamide], for which the “Cisplatin Sensitization Assay” value was “+++ (Compounds with a Cisplatin sensitization value of <0.02 μM are marked with “+++.”)”. The same measure for `Nc1nn2cc(F)cnc2c1C(=O)Nc1cncc(Cl)c1N1CCC(C(=O)N2CCN3CCC2C3)CC1` (centres unmarked) [I-G-69, N-(4-(4-(1,4-diazabicyclo[3.2.1]octane-4-carbonyl)piperidin-1-yl)-5-chloropyridin-3-yl)-2-amino-6-fluoropyrazolo[1,5-a]pyrimidine-3-carboxamide]: “+++ (Compounds with a Cisplatin sensitization value of <0.02 μM are marked with “+++.”)”; for `Nc1nn2cc(F)cnc2c1C(=O)Nc1cncc(F)c1N1CCC(C(=O)N2CC(F)(F)C2)CC1` [I-G-73, 2-amino-N-(4-(4-(3,3-difluoroazetidine-1-carbonyl)piperidin-1-yl)-5-fluoropyridin-3-yl)-6-fluoropyrazolo[1,5-a]pyrimidine-3-carboxamide]: “+++ (Compounds with a Cisplatin sensitization value of <0.02 μM are marked with “+++.”)”. Next, `Nc1nn2cc(F)cnc2c1C(=O)Nc1cncc(F)c1N1CCC(C(=O)N2CC(F)C2)CC1` [I-G-74, 2-amino-6-fluoro-N-(5-fluoro-4-(4-(3-fluoroazetidine-1-carbonyl)piperidin-1-yl)pyridin-3-yl)pyrazolo[1,5-a]pyrimidine-3-carboxamide]: “+++ (Compounds with a Cisplatin sensitization value of <0.02 μM are marked with “+++.”)”; `COC1(C)CN(C(=O)C2CCN(c3c(F)cncc3NC(=O)c3c(N)nn4cc(F)cnc34)CC2)C1` [I-G-75, 2-amino-6-fluoro-N-(5-fluoro-4-(4-(3-methoxy-3-methylazetidine-1-carbonyl)piperidin-1-yl)pyridin-3-yl)pyrazolo[1,5-a]pyrimidine-3-carboxamide]: “+++ (Compounds with a Cisplatin sensitization value of <0.02 μM are marked with “+++.”)”; `N#CC1CN(C(=O)C2CCN(c3c(F)cncc3NC(=O)c3c(N)nn4cc(F)cnc34)CC2)C1` [I-G-76, 2-amino-N-(4-(4-(3-cyanoazetidine-1-carbonyl)piperidin-1-yl)-5-fluoropyridin-3-yl)-6-fluoropyrazolo[1,5-a]pyrimidine-3-carboxamide]: “+++ (Compounds with a Cisplatin sensitization value of <0.02 μM are marked with “+++.”)”. Next, `Nc1nn2cc(F)cnc2c1C(=O)Nc1cnccc1N1CCC(C(=O)N2CCC2)CC1` [I-G-77, 2-amino-N-(4-(4-(azetidine-1-carbonyl)piperidin-1-yl)pyridin-3-yl)-6-fluoropyrazolo[1,5-a]pyrimidine-3-carboxamide]: “+++ (Compounds with a Cisplatin sensitization value of <0.02 μM are marked with “+++.”)”; `COC1CN(C(=O)C2CCN(c3ccncc3NC(=O)c3c(N)nn4cc(F)cnc34)CC2)C1` [I-G-78, 2-amino-6-fluoro-N-(4-(4-(3-methoxyazetidine-1-carbonyl)piperidin-1-yl)pyridin-3-yl)pyrazolo[1,5-a]pyrimidine-3-carboxamide]: “+++ (Compounds with a Cisplatin sensitization value of <0.02 μM are marked with “+++.”)”.

On to `COC1(C)CN(C(=O)C2CCN(c3ccncc3NC(=O)c3c(N)nn4cc(F)cnc34)CC2)C1` [I-G-79, 2-amino-6-fluoro-N-(4-(4-(3-methoxy-3-methylazetidine-1-carbonyl)piperidin-1-yl)pyridin-3-yl)pyrazolo[1,5-a]pyrimidine-3-carboxamide], for which the “Cisplatin Sensitization Assay” value is recorded as “+++ (Compounds with a Cisplatin sensitization value of <0.02 μM are marked with “+++.”)”. Consider `Nc1nn2cc(F)cnc2c1C(=O)Nc1cnccc1N1CCC(C(=O)N2CC(F)(F)C2)CC1` [I-G-80, 2-amino-N-(4-(4-(3,3-difluoroazetidine-1-carbonyl)piperidin-1-yl)pyridin-3-yl)-6-fluoropyrazolo[1,5-a]pyrimidine-3-carboxamide], for which the “Cisplatin Sensitization Assay” value is reported as “+++ (Compounds with a Cisplatin sensitization value of <0.02 μM are marked with “+++.”)”. `N#CC1CN(C(=O)C2CCN(c3ccncc3NC(=O)c3c(N)nn4cc(F)cnc34)CC2)C1` [I-G-81, 2-amino-N-(4-(4-(3-cyanoazetidine-1-carbonyl)piperidin-1-yl)pyridin-3-yl)-6-fluoropyrazolo[1,5-a]pyrimidine-3-carboxamide]: the “Cisplatin Sensitization Assay” value is reported as “+++ (Compounds with a Cisplatin sensitization value of <0.02 μM are marked with “+++.”)”. Next, `Nc1nn2cc(F)cnc2c1C(=O)Nc1cnccc1N1CCC(C(=O)N2CC(F)C2)CC1` [I-G-82, 2-amino-6-fluoro-N-(4-(4-(3-fluoroazetidine-1-carbonyl)piperidin-1-yl)pyridin-3-yl)pyrazolo[1,5-a]pyrimidine-3-carboxamide]: “+++ (Compounds with a Cisplatin sensitization value of <0.02 μM are marked with “+++.”)”; `Nc1nn2cc(F)cnc2c1C(=O)Nc1cnccc1N1CCC(C(=O)N2CCCC2)CC1` [I-G-83, 2-amino-6-fluoro-N-(4-(4-(pyrrolidine-1-carbonyl)piperidin-1-yl)pyridin-3-yl)pyrazolo[1,5-a]pyrimidine-3-carboxamide]: “+++ (Compounds with a Cisplatin sensitization value of <0.02 μM are marked with “+++.”)”.

With `Nc1nn2cc(F)cnc2c1C(=O)Nc1cnccc1N1CCC(C(=O)N2CCC3(COC3)C2)CC1` [I-G-84, N-(4-(4-(2-oxa-6-azaspiro[3.4]octane-6-carbonyl)piperidin-1-yl)pyridin-3-yl)-2-amino-6-fluoropyrazolo[1,5-a]pyrimidine-3-carboxamide], the “Cisplatin Sensitization Assay” value is “+++ (Compounds with a Cisplatin sensitization value of <0.02 μM are marked with “+++.”)”.

`Nc1nn2cc(F)cnc2c1C(=O)Nc1cnccc1N1CCC(C(=O)N2CCOCC2)CC1` [I-G-85, 2-amino-6-fluoro-N-(4-(4-(morpholine-4-carbonyl)piperidin-1-yl)pyridin-3-yl)pyrazolo[1,5-a]pyrimidine-3-carboxamide]: the “Cisplatin Sensitization Assay” value was “+++ (Compounds with a Cisplatin sensitization value of <0.02 μM are marked with “+++.”)”. The same measure for `CS(=O)(=O)C1CN(C(=O)C2CCN(c3c(F)cncc3NC(=O)c3c(N)nn4cc(F)cnc34)CC2)C1` [I-G-86, 2-amino-6-fluoro-N-(5-fluoro-4-(4-(3-(methylsulfonyl)azetidine-1-carbonyl)piperidin-1-yl)pyridin-3-yl)pyrazolo[1,5-a]pyrimidine-3-carboxamide]: “+++ (Compounds with a Cisplatin sensitization value of <0.02 μM are marked with “+++.”)”; for `Nc1nn2cc(Cl)cnc2c1C(=O)Nc1cncc(F)c1N1CCC(C(=O)N2CCN3CCC2CC3)CC1` [I-G-87, N-(4-(4-(1,4-diazabicyclo[3.2.2]nonane-4-carbonyl)piperidin-1-yl)-5-fluoropyridin-3-yl)-2-amino-6-chloropyrazolo[1,5-a]pyrimidine-3-carboxamide]: “+++ (Compounds with a Cisplatin sensitization value of <0.02 μM are marked with “+++.”)”.

Take `Nc1nn2cc(F)cnc2c1C(=O)Nc1cnccc1N1CCC(C(=O)N2CC3(COC3)C2)CC1` [I-G-88, N-(4-(4-(2-oxa-6-azaspiro[3.3]heptane-6-carbonyl)piperidin-1-yl)pyridin-3-yl)-2-amino-6-fluoropyrazolo[1,5-a]pyrimidine-3-carboxamide]: the “Cisplatin Sensitization Assay” value is given as “+++ (Compounds with a Cisplatin sensitization value of <0.02 μM are marked with “+++.”)”. The same measure for `CS(=O)(=O)C1CN(C(=O)C2CCN(c3ccncc3NC(=O)c3c(N)nn4cc(F)cnc34)CC2)C1` [I-G-89, 2-amino-6-fluoro-N-(4-(4-(3-(methylsulfonyl)azetidine-1-carbonyl)piperidin-1-yl)pyridin-3-yl)pyrazolo[1,5-a]pyrimidine-3-carboxamide]: “+ (Compounds with a Cisplatin sensitization value >0.2 μM but <5 μM are marked with “+.”)”. Next, `Nc1nn2cc(F)cnc2c1C(=O)Nc1cnccc1N1CCC(C(=O)N2CC3(CCO3)C2)CC1` [I-G-90, N-(4-(4-(1-oxa-6-azaspiro[3.3]heptane-6-carbonyl)piperidin-1-yl)pyridin-3-yl)-2-amino-6-fluoropyrazolo[1,5-a]pyrimidine-3-carboxamide]: “+++ (Compounds with a Cisplatin sensitization value of <0.02 μM are marked with “+++.”)”; `CCOC1CN(C(=O)C2CCN(c3ccncc3NC(=O)c3c(N)nn4cc(F)cnc34)CC2)C1` [I-G-91, 2-amino-N-(4-(4-(3-ethoxyazetidine-1-carbonyl)piperidin-1-yl)pyridin-3-yl)-6-fluoropyrazolo[1,5-a]pyrimidine-3-carboxamide]: “+++ (Compounds with a Cisplatin sensitization value of <0.02 μM are marked with “+++.”)”.
